Results published in US20210015092A1, “STABILIZATION OF WHOLE BLOOD AT ROOM TEMPERATURE” (Roche Diagnostics Operations, Inc., priority 2014, published 2021).

Key:
MDA-MB-468 cells [1] = assay: Preservation of cellular proteins: anti-CK5/8 immunostaining of MDA-MB-468 cells spiked into blood; format: cell-based, human; conditions: EDTA blood, 48 hours at room temperature; Sivelestat 10 μg/ml, Pefabloc SC 1 mM, SkQ1 100 nM, Mito Q 100 nM, glutathione 3 mM; versus EDTA without additive
Protocol: Preservation of Cellular Proteins Suspended cells of MDA-MB-468, a human breast cancer cell line were spiked into blood samples obtained from healthy individuals to result in 100,000 spiked cells per ml blood. The samples were processed either immediately or after storage at room temperature for 48 hours.
Nucleated cells were enriched by erythrocytes lysis. […] After centrifugation at 200×g for 15 min, the supernatant was removed and the pellet was resuspended in 250 μl of lysis buffer. […] The cells were sedimented by centrifugation at 200×g for 15 min.
For each sample a volume of 50 μl of the cell suspension was spotted on a glass slide and air-dried. The slides were fixed in ice cold acetone for 10 min, washed with PBS twice and immersed in labeling mixture containing anti-cytokeratine K5/K8-FITC labeled antibody diluted 1:50 in PBS (cytokeratine=CK). After an incubation for 30 min in the dark the supernatant was removed. DAPI-containing mounting medium was added, the spots covered with cover slips and after a further incubation for 20 min analyzed on a Zeiss Axio Observer Microscope. The total number of nucleated cells and the CK 5/8 positive cells were analyzed with the Assay Builder Software from Zeiss.
MDA-MB-468 cells were spiked into blood samples obtained from healthy individuals to result in a concentration of 100,000 spiked cells/ml blood. The samples were processed either immediately or after storage at room temperature for 48 hours. […] Sample 3 was additionally supplemented with the mitochondria targeted antioxidant SS-31 (1 μM), sample 4 with glutathione (0.75 mM). Nucleated cells were enriched by erythrocytes lysis and processed as described in Example 1.

MDA-MB-468 cells [2] = assay: Isolation of viable cells after sample storage for 48 hours, Trypan blue exclusion; format: cell-based, human; conditions: 48 hours at room temperature, two donors
Protocol: MDA-MB-468 cells were spiked into blood samples obtained from healthy individuals to result in a final concentration of 300,000 spiked cells/ml blood. The samples were processed either immediately or after storage at room temperature for 48 hours.
Immediately after sample set up and 48 hours later nucleated cells were enriched by erythrocyte lysis. […] The cells were sedimented by centrifugation at 200×g for 15 min.
From these samples the MDA-MB-468 cells were isolated using CD326 (EpCAM) Microparticles from Miltenyi (Cat No 130-061-101), MS columns and the MACS separator system (Milteny Cat. Nos. 130-042-201, 130-042-102) making use of the protocol recommended by the manufacturer.
The enriched cells were suspended in 300 μl of RPMI medium.
The viability of the cells was tested with the Trypan blue exclusion method. 10 μl of each sample was mixed with 10 μl of Trypan blue (Sigma-Aldrich T8154). The number of MDA-MB-468 cells excluding the dye was counted in a Neubauer chamber. The yield of viable cells was calculated using the cell number spiked into the blood samples as 100%.

MDA-MB-468 cells [3] = assay: Quantification of RNA from MDA-MB-468 cells isolated after 72 h sample storage; format: cell-based, human; conditions: 72 hours at room temperature, GCK DNA as reference, two donors
Protocol: MDA-MB-468 cells were spiked into blood samples obtained from two healthy individuals at 14.4×10^6 cells/ml. From each donor four samples were prepared. […] Aliquots from these samples were processed immediately after set up, other aliquots were processed after storage at room temperature for 72 hours. MDA-MB-468 cells were isolated from blood by capturing with BreastSelectBeads from Adnagen Cat. No.: T1-508 with 1,000 μl aliquots of sample material according to the protocol recommended by the manufacturer.
The bead captured purified cells were resuspended in 1,000 μl PBS. With 200 μl aliquots RNA was isolated using the MagNA Pure LC DNA Isolation Kit—Large volume Cat No 03310515001 using the Program “DNA LV Blood_20_200” and an elution volume of 100 μl.
The RNA was transcribed into cDNA using Transcriptor First Strand cDNA Synthesis Kit Cat. No: 04897030001 in reactions of 70 μl volume, each reaction containing 12.5 μl of isolated nucleic acid. PCR was peformed with the with the LightCycler 480 Probes Master in a LightCycler 480 instrument in 20 μl reactions containing 5 μl of the cDNA samples. […]
To quantify the changes in expression level of the RNA target tested, the relative quantification method of Livak and Schmittgen was used (Livak K. J. and Schmittgen T. D., Methods 2001, 25(4) 402-408). […]

MDA-MB-468 cells [4] = conditions: blood stored 48 hours at room temperature; cell index for 101 hours
Protocol: MDA-MB-468 cells treated and isolated as described in Example 6 were seeded into the wells of an E-Plate 96-well device (Roche Applied Science, Cat. No. 06472451001, Roche Diagnostics GmbH Mannheim, Germany) for the Real-Time Cell Analyzer (RTCA) MP (xCELLigence system). 50 μl aliquots of cells were seeded into wells containing 50 μl of RPMI medium. Duplicates were used for analysis. The E-Plate was incubated over night at 37° C. in an incubator to allow attachment of MDA-MB-468 cells to the bottom of the E-Plate. In order to remove contaminating blood derived cells the medium was removed and cells attached to the culture plate were washed 3 times with PBS. 150 μl of fresh RPMI medium was added per well and the E-Plate transferred to the Real-Time Cell Analyzer. Cell index was measured once per hour for 101 hours.

CC(C)(C)C(=O)Oc1ccc(S(=O)(=O)Nc2ccccc2C(=O)NCC(=O)O)cc1 [Sivelestat]
percentage of MDA-MB-468 cells detected by immunostaining with Anti-CK5/8 (FIG. 1) (MDA-MB-468 cells [1]): higher signals than the control sample without additive

Cl.NCCc1ccc(S(=O)(=O)F)cc1 [Pefabloc SC, 4-(2-aminoethyl) benzenesulfonyl fluoride hydrochloride]
percentage of MDA-MB-468 cells detected by immunostaining with Anti-CK5/8 (FIG. 1) (MDA-MB-468 cells [1]): higher signals than the control sample without additive

O=C(O)CN(CCN(CC(=O)O)CC(=O)O)CC(=O)O [EDTA]
cell viability after storage, in words (MDA-MB-468 cells [2]): negatively affected | change of RNA levels of isolated MDA-MB-468 cells (FIG. 4) (MDA-MB-468 cells [3]): strong decline in RNA levels | cell growth in culture of cells isolated from stored blood (FIG. 5) (MDA-MB-468 cells [4]): not culturable anymore

N[C@@H](CCC(=O)N[C@@H](CS)C(=O)NCC(=O)O)C(=O)O [glutathione]
percentage of MDA-MB-468 cells detected by immunostaining with Anti-CK5/8 (FIG. 1) (MDA-MB-468 cells [1]): further positive effect

COC1=C(OC)C(=O)C(CCCCCCCCCC[P+](c2ccccc2)(c2ccccc2)c2ccccc2)=C(C)C1=O [MitoQ, (10-(2,5-dihydroxy-3,4-dimethoxy-6-methylphenyl)decyl) triphenylphosphonium and (10-(4,5-dimethoxy-2-methyl-3,6-dioxocyclohexa-1,4-dienyl)decyl) triphenylphosphonium]
percentage of MDA-MB-468 cells detected by immunostaining with Anti-CK5/8 (FIG. 1) (MDA-MB-468 cells [1]): Particular positive effects

CC1=C(C)C(=O)C(CCCCCCCCCC[P+](c2ccccc2)(c2ccccc2)c2ccccc2)=CC1=O [SkQ1, 10-(6′-plastoquinonyl) decyltriphenylphosphonium]
percentage of MDA-MB-468 cells detected by immunostaining with Anti-CK5/8 (FIG. 1) (MDA-MB-468 cells [1]): Particular positive effects
